Test results from patent publication US20170326125A1, “MULTISUBSTITUTED AROMATIC COMPOUNDS AS INHIBITORS OF THROMBIN” (VERSEON CORPORATION, priority 2016, published 2017).

Target: T1, Human thrombin (Homo sapiens, UniProt P00734)
T1 construct: purchased Haematologic Technologies Inc
Assay: Inhibition of the protease activity of thrombin (chromogenic substrate S-2238)
Type: biochemical
Conditions: Table C; 3 nM thrombin, 125 μM S-2238, 10 min pre-incubation, RT

Structure (SMILES) | IC50 [nM]
COc1ccc(CNc2nc(-c3cccnc3)nn2C(C)=O)cc1 [Cmpd 323, 1-(5-[(4-methoxyphenyl)methyl]amino-3-(pyridin-3-yl)-1H-1,2,4-triazol-1-yl)ethan-1-one] | 100 to 1000
O=C(c1cccs1)n1nc(-c2cccnc2)nc1NCc1ccc(F)cc1 [Cmpd 403, N-[(4-fluorophenyl)methyl]-3-(pyridin-3-yl)-1-[(thiophen-2-yl)carbonyl]-1H-1,2,4-triazol-5-amine] | < 100
CCCC(=O)n1nc(-c2cccnc2)nc1NCc1ccc(F)cc1 [Cmpd 316, 1-(5-[(4-fluorophenyl)methyl]amino-3-(pyridin-3-yl)-1H-1,2,4-triazol-1-yl)butan-1-one] | < 100
COC(=O)c1n[nH]c(NC(=O)c2cccc(C)c2)n1 [Cmpd 382, methyl 5-[(3-methylbenzene)amido]-1H-1,2,4-triazole-3-carboxylate] | > 1000
O=C(Cc1ccccc1)n1nc(-c2ccco2)nc1NCc1ccccc1 [Cmpd 346, 1-[5-(benzylamino)-3-(furan-2-yl)-1H-1,2,4-triazol-1-yl]-2-phenylethan-1-one] | < 100
CC(C)C(=O)n1nc(-c2cccnc2)nc1NCc1ccc(Cl)cc1 [Cmpd 306, 1-(5-[(4-chlorophenyl)methyl]amino-3-(pyridin-3-yl)-1H-1,2,4-triazol-1-yl)-2-methylpropan-1-one] | < 100
COC(=O)c1nnc(NC(=O)c2ccc(F)cc2)[nH]1 [Cmpd 385, methyl 5-[(4-fluorobenzene)amido]-4H-1,2,4-triazole-3-carboxylate] | 100 to 1000
CC(=O)n1nc(-c2cccnc2)nc1NCc1ccc(Cl)cc1 [Cmpd 307, 1-(5-[(4-chlorophenyl)methyl]amino-3-(pyridin-3-yl)-1H-1,2,4-triazol-1-yl)ethan-1-one] | < 100
COc1ccccc1CNc1nc(-c2ccco2)nn1C(=O)c1ccc(C)cc1 [Cmpd 370, 3-(furan-2-yl)-N-[(2-methoxyphenyl)methyl]-1-[(4-methylphenyl)carbonyl]-1H-1,2,4-triazol-5-amine] | 100 to 1000
COC(=O)c1n[nH]c(NC(=O)c2ccoc2C)n1 [Cmpd 379, methyl 5-(2-methylfuran-3-amido)-1H-1,2,4-triazole-3-carboxylate] | > 1000
COc1ccccc1CNc1nc(-c2cccnc2)nn1C(=O)C(C)C [Cmpd 305, 1-(5-[(2-methoxyphenyl)methyl]amino-3-(pyridin-3-yl)-1H-1,2,4-triazol-1-yl)-2-methylpropan-1-one] | > 1000
COC(=O)c1n[nH]c(NC(=O)c2ccccc2C)n1 [Cmpd 380, methyl 5-[(2-methylbenzene)amido]-1H-1,2,4-triazole-3-carboxylate] | > 1000
COCC(=O)n1nc(-c2cccnc2)nc1NCc1ccc(F)cc1 [Cmpd 311, 1-(5-[(4-fluorophenyl)methyl]amino-3-(pyridin-3-yl)-1H-1,2,4-triazol-1-yl)-2-methoxyethan-1-one] | > 1000
O=C(CCc1ccccc1)n1nc(-c2ccco2)nc1NCc1ccccc1 [Cmpd 347, 1-[5-(benzylamino)-3-(furan-2-yl)-1H-1,2,4-triazol-1-yl]-3-phenylpropan-1-one] | < 100
CCC(=O)n1nc(-c2cccs2)nc1NCc1ccccc1 [Cmpd 352, 1-[5-(benzylamino)-3-(thiophen-2-yl)-1H-1,2,4-triazol-1-yl]propan-1-one] | < 100
CCOC(=O)n1nc(-c2ccc(Cl)cc2)cc1N [Cmpd 376, ethyl 5-amino-3-(4-chlorophenyl)-1H-pyrazole-1-carboxylate] | > 1000
COC(=O)c1n[nH]c(NC2=NCCCCC2)n1 [Cmpd 381, methyl 5-[(3,4,5,6-tetrahydro-2H-azepin-7-yl)amino]-1H-1,2,4-triazole-3-carboxylate] | > 1000
O=C(c1cccnc1)n1nc(-c2ccco2)nc1NCc1ccccc1Cl [Cmpd 397, N-[(2-chlorophenyl)methyl]-3-(furan-2-yl)-1-[(pyridin-3-yl)carbonyl]-1H-1,2,4-triazol-5-amine] | 100 to 1000

Same assay, conditions: inhibition of the protease activity of thrombin

Structure (SMILES) | IC50 [nM]
O=C(c1ccsc1)n1nc(-c2cccnc2)nc1NCc1ccc(F)cc1 [Cmpd 220, N-[(4-fluorophenyl)methyl]-3-(pyridin-3-yl)-1-[(thiophen-3-yl)carbonyl]-1H-1,2,4-triazol-5-amine] | < 100
O=C(c1ccoc1)n1nc(-c2ccccn2)nc1NCc1ccc(F)cc1 [Cmpd 212, N-[(4-fluorophenyl)methyl]-1-[(furan-3-yl)carbonyl]-3-(pyridin-2-yl)-1H-1,2,4-triazol-5-amine] | < 100
COc1ccccc1C(=O)n1nc(-c2ccccc2)cc1NCc1ccc(F)cc1 [Cmpd 208, N-[(4-fluorophenyl)methyl]-1-[(2-methoxyphenyl)carbonyl]-3-phenyl-1H-pyrazol-5-amine] | > 1000

Next, values leading:

IC50 [nM] | Structure (SMILES)
< 100 | COc1ccccc1C(=O)n1nc(-c2cccnn2)nc1NCc1ccccc1 [Cmpd 254, N-benzyl-1-[(2-methoxyphenyl)carbonyl]-3-(pyridazin-3-yl)-1H-1,2,4-triazol-5-amine]
> 1000 | COc1ccccc1C(=O)N(Cc1ccccc1)c1cc(-c2ccccc2F)n[nH]1 [Cmpd 292, N-benzyl-N-[3-(2-fluorophenyl)-1H-pyrazol-5-yl]-2-methoxybenzamide]
> 1000 | CCN(C)C(=O)n1nc(-c2cccnc2)nc1NCc1ccc(F)cc1 [Cmpd 297, N-ethyl-5-[(4-fluorophenyl)methyl]amino-N-methyl-3-(pyridin-3-yl)-1H-1,2,4-triazole-1-carboxamide]
100 to 1000 | COc1ccc(C(=O)n2nc(-c3ccccn3)cc2NCc2ccccc2)c(OC)c1 [Cmpd 236, N-benzyl-1-[(2,4-dimethoxyphenyl)carbonyl]-3-(pyridin-2-yl)-1H-pyrazol-5-amine]
< 100 | O=C(c1ccsc1)n1nc(-c2ccccn2)cc1NCc1ccccc1 [Cmpd 284, N-benzyl-3-(pyridin-2-yl)-1-[(thiophen-3-yl)carbonyl]-1H-pyrazol-5-amine]
< 100 | COc1cccc(C(=O)n2nc(-c3ccccn3)nc2NCc2ccccc2)c1 [Cmpd 261, N-benzyl-1-[(3-methoxyphenyl)carbonyl]-3-(pyridin-2-yl)-1H-1,2,4-triazol-5-amine]
> 1000 | CCN(C)C(=O)c1cc(-c2ccccn2)nn1CCc1ccc(F)cc1 [Cmpd 293, N-ethyl-1-[2-(4-fluorophenyl)ethyl]-N-methyl-3-(pyridin-2-yl)-1H-pyrazole-5-carboxamide]
100 to 1000 | O=C(c1ccc2ccccc2c1)n1nc(-c2ccccn2)nc1NCc1ccccc1 [Cmpd 271, N-benzyl-1-[(naphthalen-2-yl)carbonyl]-3-(pyridin-2-yl)-1H-1,2,4-triazol-5-amine]
100 to 1000 | CCc1ccccc1C(=O)n1nc(-c2ccccn2)nc1NCc1ccccc1 [Cmpd 246, N-benzyl-1-[(2-ethylphenyl)carbonyl]-3-(pyridin-2-yl)-1H-1,2,4-triazol-5-amine]
100 to 1000 | O=C(c1ccsc1)n1nc(-c2cccs2)nc1NCc1ccccc1 [Cmpd 291, N-benzyl-3-(thiophen-2-yl)-1-[(thiophen-3-yl)carbonyl]-1H-1,2,4-triazol-5-amine]

Same assay, conditions: inhibition of the protease activity of thrombin; class symbols a/b/c

Structure (SMILES) | IC50 [nM]
O=C(Nc1ccccc1)n1nc(-c2cccnc2)nc1NCc1ccc(F)cc1 [Cmpd 191, 5-[(4-fluorophenyl)methyl]amino-N-phenyl-3-(pyridin-3-yl)-1H-1,2,4-triazole-1-carboxamide] | > 1000
CN(C(=O)c1cc(-c2ccccn2)nn1CCc1ccc(F)cc1)c1ccccc1 [Cmpd 130, 1-[2-(4-fluorophenyl)ethyl]-N-methyl-N-phenyl-3-(pyridin-2-yl)-1H-pyrazole-5-carboxamide] | > 1000
CCC(=O)n1nc(-c2ccncc2)nc1NCc1ccc(OC)cc1 [Cmpd 100, 1-(5-[(4-methoxyphenyl)methyl]amino-3-(pyridin-4-yl)-1H-1,2,4-triazol-1-yl)propan-1-one] | 100 to 1000
COc1ccc(CNc2nc(-c3ccccn3)nn2C(=O)c2ccoc2)cc1 [Cmpd 125, 1-[(furan-3-yl)carbonyl]-N-[(4-methoxyphenyl)methyl]-3-(pyridin-2-yl)-1H-1,2,4-triazol-5-amine] | 100 to 1000
COc1ccccc1C(=O)n1nc(-c2ccco2)nc1NCc1ccc(F)cc1 [Cmpd 26] | < 100
COc1ccccc1C(=O)n1nc(-c2ncccn2)nc1NCc1ccccc1 [Cmpd 35] | < 100
O=C(c1ccc(Cl)cc1)n1nc(-c2ccccn2)nc1NCc1ccc(F)cc1 [Cmpd 121, 1-[(4-chlorophenyl)carbonyl]-N-[(4-fluorophenyl)methyl]-3-(pyridin-2-yl)-1H-1,2,4-triazol-5-amine] | < 100
CCC(=O)n1nc(-c2cccnc2)nc1NCc1ccccc1F [Cmpd 9] | 100 to 1000
O=C(c1ccccc1)n1nc(-c2ccncc2)nc1NCc1ccccc1 [Cmpd 160, 1-benzoyl-N-benzyl-3-(pyridin-4-yl)-1H-1,2,4-triazol-5-amine] | < 100
COc1ccccc1C(=O)n1nc(-c2ccccn2)cc1NCc1cccs1 [Cmpd 116, 1-[(2-methoxyphenyl)carbonyl]-3-(pyridin-2-yl)-N-(thiophen-2-ylmethyl)-1H-pyrazol-5-amine] | 100 to 1000
CCOC(=O)c1cc(-c2ccccn2)n(CCc2ccc(F)cc2)n1 [Cmpd 57] | > 1000
CCC(=O)n1nc(-c2ccccc2)cc1NCc1ccc(F)cc1 [Cmpd 84, 1-(5-[(4-fluorophenyl)methyl]amino-3-phenyl-1H-pyrazol-1-yl)propan-1-one] | > 1000
CN(C)C(=O)c1cc(-c2ccccn2)n(CCc2ccc(F)cc2)n1 [Cmpd 129, 1-[2-(4-fluorophenyl)ethyl]-N,N-dimethyl-5-(pyridin-2-yl)-1H-pyrazole-3-carboxamide] | > 1000
CN(C)C(=O)c1cc(-c2ccccn2)nn1CCc1ccc(F)cc1 [Cmpd 128, 1-[2-(4-fluorophenyl)ethyl]-N,N-dimethyl-3-(pyridin-2-yl)-1H-pyrazole-5-carboxamide] | > 1000
CC(C)(C)C(=O)n1nc(-c2cccs2)nc1NCc1ccccc1 [Cmpd 152, 1-[5-(benzylamino)-3-(thiophen-2-yl)-1H-1,2,4-triazol-1-yl]-2,2-dimethylpropan-1-one] | < 100
